# Results reported in patent US20070238762A1, “Use of Antagonists of Hepatic Sympathetic Nerve Activity” (DiaMedica Inc., priority 2003, published 2007).
# What was measured:
# Sprague Dawley rats [1] = experiment: Rapid insulin sensitivity test (RIST) following 24 hour fast; type: in vivo, rat; settings: male rats fasted 24 hours; constant i.v. infusion of phentolamine; FIG. 3
# Text: HISS-dependent and HISS-independent insulin action can be most readily quantitated using the rapid insulin sensitivity test (RIST) which is a transient euglycemic clamp in response to a bolus administration of insulin. […] The RIST method uses variable glucose infusion rates to maintain the blood glucose level constant. The amount of glucose required to be administered in order to maintain the glycemic baseline is the index of insulin sensitivity and is referred to as the RIST index. The RIST index produced by this procedure consists of a HISS-dependent component and a HISS-independent component that can be readily differentiated by testing in the control fed state and then repeating the test after blockade of HISS release by any of a number of means including surgical denervation of the liver, blockade of hepatic muscarinic receptors, blockade of hepatic nitric oxide production, or blockade of hepatic cyclooxygenase. […] Blockade of HISS release results in HDIR. […] In order to determine whether HISS played a role in controlling glycogenolysis in response to acute trauma, fully anesthetized, fed, male, Sprague Dawley rats were prepared surgically according to the standard animal preparation used to conduct a rapid insulin sensitivity test (RIST) (Lautt et al., 1998). […] Blood was then withdrawn at a rate of 0.5 ml/min to decrease arterial pressure to 50 mm Hg. […]
# Sprague Dawley rats [2] = experiment: Rapid insulin sensitivity test (RIST) following 18 hour fast; type: in vivo, rat; settings: male rats fasted 18 hours; bolus 600 μg/kg ipv phentolamine; FIG. 4
# Experimental: Blockade of HISS release results in HDIR.
# Male, Sprague Dawley rats were fed normal rat pellets and then fasted for a 18-hour period (with free access to water) prior to administration of pentobarbital sodium anesthesia and standard RIST methodology surgical preparation as described in Example One.
# Following fasting, the animals were administered a bolus dose of 600 μg/kg ipv of phentolamine or a bolus dose of 600 μg/kg ipv of phentolamine and 5 μg/kg ipv of arecoline.
smiles,measurement,setting,value
Cc1ccc(N(CC2=NCCN2)c2cccc(O)c2)cc1 [phentolamine],insulin action (RIST),Sprague Dawley rats [1],significantly restored toward normal levels
same,insulin action (RIST),Sprague Dawley rats [2],restoration of insulin action
